What was measured:
[1] = test system: subjects with a primary diagnosis of MDD; test: MDD Study No. 2: efficacy evaluation, randomized double-blind placebo-controlled study; type: in vivo, human
Experimental: This example describes the results of a second multicenter, randomized, double-blind, placebo-controlled, parallel-group study that was also designed to evaluate the efficacy and safety of 50 and 100 mg/day ODV for treating MDD.
Subjects were male or female adults that met the same criteria as the subjects in Example 1. The planned enrollment was 450 subjects. A total of 565 subjects were screened for participation; 80 were screen failures and 485 were randomly assigned to treatment: 161 were assigned to receive placebo, 166 were assigned to receive ODV 50 mg/day; and 158 were assigned to receive ODV 100 mg/day. All 485 randomized subjects were included in the safety population (completed the prestudy period and took at least 1 dose of double-blind study drug). The intent-to-treat [ITT] efficacy population included 483 subjects, and the per-protocol [PP] efficacy population included 440 subjects. Completers for exposure (353 subjects) were defined as subjects who had at least 53 days of exposure to study drug.
The administration protocols for 50 or 100 mg/day and placebo groups were the same as in Example 1.
The primary and secondary outcomes were the same as in Example 1 as were the statistical methods. P-values of less than 0.05 are shown in bold.

[2] = test system: subjects with a primary diagnosis of MDD; test: MDD Study No. 1: efficacy evaluation, randomized double-blind placebo-controlled 8-week study; type: in vivo, human
Experimental: This example describes the results of a multicenter, randomized, double-blind, placebo-controlled, parallel-group study that was designed to evaluate the efficacy and safety of 50 and 100 mg/day ODV for treating MDD.
Subjects were male or female outpatients at least 18 years of age who had depressive symptoms for at least 30 days before the screening visit, and a primary diagnosis of MDD based on the criteria in the Diagnostic and Statistical Manual of Mental Disorders, Fourth edition (DSM-IV), single or recurrent episode, without psychotic features. Minimum screening and baseline scores of 20 on the Hamilton Rating Scale for Depression, 17-item (HAM-D17), of 2 on item 1 (depressed mood) on the HAM-D17, and of 4 on the Clinical Global Impressions Scale-Severity (CGI-S) were also required.
The planned enrollment was 480 subjects. A total of 703 subjects were screened for participation; 229 were screen failures and 474 were randomly assigned to treatment: 159 were assigned to receive placebo, 158 were assigned to receive ODV 50 mg/day; and 157 were assigned to receive ODV 100 mg/day. Twenty-three (23) of these 474 subjects were considered “no-data subjects” (randomized to treatment without information as to treatment). […]
The primary outcome variable was the HAM-D17 total score. The key secondary outcome variable was the Clinical Global Impressions Scale-Improvement (CGI-D score. Other secondary efficacy variables included the CGI-S, the Montgomery and Asberg Depression Rating Scale (MADRS) score, the HAM-D6 (Bech version: HAM-D17 items 1, 2, 7, 8, 10, and 13) score, the Covi Anxiety Scale total score, the remission rate (percentage of subjects with HAM-D17 scores of ≦7), response rates for the HAM-D17 (50% or greater change from baseline in the HAM-D17 total score), MADRS, and CGI-I, and the visual analog scale for pain intensity (VAS-PI). Self-administered health outcomes assessments were measured by the Sheehan Disability Scale (SDS) and the World Health Organization 5-Item Well-Being Index (WHO-5). […]

[3] = test system: subjects with a primary diagnosis of MDD; test: MDD Study No. 2: safety evaluation (AEs, DESS, laboratory); type: in vivo, human; details: for subjects with AEs as reason for discontinuation: on-therapy period, placebo 3%
Experimental: The safety of the two doses was determined using the same assessments as in Example 1. […] Headache was the only TPAE with an incidence≧5% in the placebo group.
The DESS checklist was used to evaluate symptoms that first occurred, or that worsened, during the taper period (the 7-day period after the end of the double-blind treatment period). During this 7-day period, doses of ODV were tapered to 0 mg for subjects in the 50 mg group, and to 50 mg for subjects in the 100 mg group. The DESS checklist was administered to 420 of the 423 subjects who had completed at least 53 days of on-therapy treatment.

[4] = test system: norepinephrine and serotonin uptake; details: Klamerus et al., J. Clin. Pharmacol. 32:716-724 (1992); cited from earlier work
[5] = all subjects, 50 and 100 mg/day

What does the source list for `CN(C)CC(c1ccc(O)cc1)C1(O)CCCCC1` (centres unmarked) [ODV, 1-[2-(dimethylamino)-1-(4-phenol)ethyl]-cyclohexanol]?
HAM-D17 total score, adjusted mean change from baseline ([1]; 50 mg/day, FOT evaluation, ANCOVA LOCF, placebo −10.7): −13.2; HAM-D17 total score, adjusted mean change from baseline ([1]; 50 mg/day, week 8, mixed effect model, placebo −11.5): −14.4; HAM-D17 total score, adjusted mean change from baseline ([1]; 100 mg/day, FOT evaluation, ANCOVA LOCF, placebo −10.7): −13.7; HAM-D17 total score, adjusted mean change from baseline ([1]; 100 mg/day, week 8, mixed effect model, placebo −11.5): −14.9; HAM-D17 total score, adjusted mean change from baseline ([2]; 50 mg/day, FOT evaluation, ANCOVA LOCF, placebo −9.53): −11.5; HAM-D17 total score, adjusted mean change from baseline ([2]; 50 mg/day, week 8, mixed-effects model, placebo −9.86): −12.40; HAM-D17 total score, adjusted mean change from baseline ([2]; 100 mg/day, week 8, mixed-effects model, placebo −9.86): −11.88; incidence of nausea leading to discontinuation ([3]; 50 mg group): 1.2%; incidence of sweating leading to discontinuation ([3]; 50 mg group): 1.2%; incidence of vomiting leading to discontinuation ([3]; 50 mg group): 1.2%; most common (incidence≧5%) taper/poststudy-emergent AEs ([3]; 50 mg group): headache, nausea, dizziness, and insomnia; subjects with clinically important elevated SGPT/ALT levels ([3]; 50 mg group): another subject; p-value, mean DESS scores in comparison with placebo ([3]; 50 mg group, during the 7-day taper period): 0.001; subjects with clinically important increased total cholesterol levels ([3]; 50 mg group, number of subjects): 1; subjects with clinically important elevated SGOT/AST levels ([3]; 50 mg group, number of subjects, placebo 1): 1; subjects with AEs as reason for discontinuation ([3]; 50 mg group): 5%; incidence of anorgasmia in men leading to discontinuation ([3]; 100 mg group): 2.1%; incidence of asthenia leading to discontinuation ([3]; 100 mg group): 1.3%; incidence of headache leading to discontinuation ([3]; 100 mg group): 1.3%; incidence of nausea leading to discontinuation ([3]; 100 mg group): 3.8%; most common (incidence≧5%) TPAEs ([3]; 100 mg group): headache, nausea, depression, dizziness, and vertigo; subjects with AEs as reason for discontinuation ([3]; 100 mg group): 7%; p-value, mean DESS in comparison with placebo ([3]; 100 mg group, week after the 7-day taper period): 0.017; SAEs during the on-therapy period [3, 5]: None of the subjects had SAEs during the on-therapy period; deaths during the study [3, 5]: No deaths occurred during this study; inhibition of norepinephrine and serotonin uptake [4]: has been shown to inhibit norepinephrine and serotonin uptake

From patent US20110027324A1, “O-DESMETHYL-V[…] TREATING MAJOR DEPRESSIVE DISORDER” (Wyeth LLC, priority 2007, published 2011)
